Results from PubChem BioAssay AID1259338 (Broad Institute, 2017).
Active and inactive are the calls of the source.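 Rule for the calls: active = compounds lowering the signal with a fitted AC50 at or below a set concentration limit; inconclusive = flat curve with 30 to 70% inhibition, or a poor fit; inactive = the rest.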

Target: Caspase recruitment domain-containing protein 9 (Homo sapiens) + E3 ubiquitin-protein ligase TRIM62 (Homo sapiens) (UniProt Q9H257+Q9BVG3)
Experiment: disruptors of CARD9-TRIM62 binding, dose response, cell lysate, HEK293FT lysates, Luminex bead readout (AID 1259338); for activity change, negative = inhibition: reference of the scale not given here
Conditions: Luminex bead PPI, MFI

Sequence of Caspase recruitment domain-containing protein 9 (Homo sapiens) + E3 ubiquitin-protein ligase TRIM62 (Homo sapiens) (Q9BVG3 whole entry, looked up, the tested form may be a part): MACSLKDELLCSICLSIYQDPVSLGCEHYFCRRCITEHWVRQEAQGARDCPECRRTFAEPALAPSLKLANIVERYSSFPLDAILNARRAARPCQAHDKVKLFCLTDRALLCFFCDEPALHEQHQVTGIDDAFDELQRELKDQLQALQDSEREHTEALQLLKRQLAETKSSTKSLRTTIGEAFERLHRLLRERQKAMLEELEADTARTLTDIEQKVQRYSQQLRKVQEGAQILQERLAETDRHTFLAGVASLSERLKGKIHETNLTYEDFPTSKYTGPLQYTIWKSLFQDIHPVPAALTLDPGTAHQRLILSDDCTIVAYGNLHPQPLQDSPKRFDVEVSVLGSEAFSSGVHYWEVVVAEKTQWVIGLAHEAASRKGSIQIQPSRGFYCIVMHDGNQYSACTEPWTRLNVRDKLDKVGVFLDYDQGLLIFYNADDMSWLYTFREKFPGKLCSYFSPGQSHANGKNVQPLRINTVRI
Sequence of Caspase recruitment domain-containing protein 9 (Homo sapiens) + E3 ubiquitin-protein ligase TRIM62 (Homo sapiens) (Q9H257 whole entry, looked up, the tested form may be a part): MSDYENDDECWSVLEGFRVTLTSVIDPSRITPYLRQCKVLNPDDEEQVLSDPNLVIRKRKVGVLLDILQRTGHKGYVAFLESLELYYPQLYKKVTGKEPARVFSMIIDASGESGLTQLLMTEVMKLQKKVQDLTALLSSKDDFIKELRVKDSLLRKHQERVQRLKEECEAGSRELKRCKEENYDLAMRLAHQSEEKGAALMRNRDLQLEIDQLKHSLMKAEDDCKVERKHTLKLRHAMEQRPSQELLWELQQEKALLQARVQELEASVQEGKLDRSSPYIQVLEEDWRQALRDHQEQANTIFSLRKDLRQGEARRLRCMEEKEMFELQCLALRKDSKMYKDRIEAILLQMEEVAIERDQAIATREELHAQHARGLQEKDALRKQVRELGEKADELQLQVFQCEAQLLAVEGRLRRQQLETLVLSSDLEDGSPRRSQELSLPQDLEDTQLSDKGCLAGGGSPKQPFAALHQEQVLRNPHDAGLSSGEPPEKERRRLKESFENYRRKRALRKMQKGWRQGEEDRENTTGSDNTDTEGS

Row | Compound | activity change, negative = inhibition (at 80 µM (top of the series)) | also measured
1 | c1ccc(-c2nc(-c3ccco3)n3ccccc23)cc1 |  | AC50: > 76 µM (inactive)
2 | O=S(=O)(c1ccccc1)N1CC2CN(Cc3ccc(O)cc3)C2C1 (stereo not given) |  | AC50: 22.8 µM
3 | O=C(COC(=O)c1cc(-c2ccco2)nc2ccccc12)NCc1ccc2c(c1)OCO2 | inactive | 
4 | CCOC(=O)c1[nH]c(Cc2[nH]c(C(=O)OCC)c(C)c2C)c(C)c1C | inactive | 
5 | Fc1ccc(CSc2nnc(-c3cccnc3)n2Cc2ccco2)cc1 | inactive | 
6 | Cn1nnnc1SCCNCc1ccc(-c2cccc(C(F)(F)F)c2)o1 | inactive | 
7 | O=C(COC(=O)c1ccc(S(=O)(=O)NCc2ccco2)cc1)Nc1ccc(Cl)cn1 | inactive | 
8 | O=S(=O)(Nc1nccs1)c1ccc(-n2cccc2)cc1 | inactive | 
9 | Cc1ccc(Cc2cnc(N)s2)o1 | inactive | 
10 | FC(F)(F)c1cc(Cl)c2nnc(C(F)(F)Cl)n2c1 | inactive | 
11 | CCCN1CCCn2nc(CNC(=O)[C@@H](N)Cc3ccc(O)cc3)cc2C1 |  | AC50: 27.8 µM
12 | O=C(NCc1ccco1)c1ccc(S(=O)(=O)N2CCOCC2)cc1 | inactive | 
13 | COCCCNC(=O)C1CCN(c2ccc(N3CCOCC3)nn2)CC1 | inactive | 
14 | Nc1ccccc1Sc1nccc(C(F)(F)F)n1 | inactive | 
15 | C[C@H](CO)N1C[C@H](C)[C@@H](CN(C)C(=O)C2CCCCC2)OCCCC[C@H](C)Oc2ccc(NS(=O)(=O)c3ccc(F)cc3)cc2C1=O | inactive | 
16 | N#Cc1sc2nc(-c3ccccc3)cc(-c3ccco3)c2c1N | inactive | 
17 | O=C1NC(c2ccc(Br)cc2)Nc2sc3c(c21)CCC3 (stereo not given) | inactive | 
18 | Cc1sc2ncnc(SCc3ccco3)c2c1C | inactive | 
19 | N#CNc1nc(O)cc(=O)[nH]1 | inactive | 
20 | Cc1cccc(Nc2nc(C(=O)Nc3cc(F)ccc3F)nc3ccccc23)c1 |  | activity change, negative = inhibition (at 38 µM (top of the series)): inactive
21 | O=C(O)c1cc(-c2ccc(-c3ccc(F)cc3)o2)nc2ccccc12 | inactive | 
22 | O=[N+]([O-])c1cccc(-c2nnc3ccc4ccccc4n23)c1 |  | AC50: 80.2 µM

Row | Compound | activity change, negative = inhibition (at 80 µM (top of the series)) | also measured
23 | Cc1cccc2nc(CSCc3ccco3)cn12 |  | AC50: > 160 µM (inactive)
24 | Cc1ccc(-c2nc(C)sc2CC(=O)NCc2ccco2)cc1 | inactive | 
25 | O=C1c2ccccc2-c2nc3ccccc3nc21 |  | AC50: > 160 µM (inactive)
26 | NC(=O)C1(N2CCCCC2)CCN(c2ccc(NC(=O)c3cccc(Cl)c3)cc2C(=O)O)CC1 |  | AC50: 14.8 µM
27 | COc1ccc(-n2c(C)c3c(OC)cccc(=O)c3c2C)cc1 |  | AC50: 79.7 µM
28 | Cc1cc(C(=O)NCc2ccco2)on1 | inactive | 
29 | O=C(CC1Nc2ccccc2OC1=O)Nc1ccc(Cl)cc1 (stereo not given) | inactive | 
30 | N#Cc1c2c(c(NCc3ccco3)n3c1nc1ccccc13)CCC2 | inactive | 
31 | O=C(O)C(c1ccccc1)C(c1ccccc1)c1ccccc1 (stereo not given) | inactive | 
32 | CCOC(=O)/C=C/S(=O)(=O)c1ccc(NC(C)=O)cc1 | inactive | 
33 | O=C(Cc1cccs1)Nc1nnc(Cc2ccccc2)s1 | inactive | 
34 | C[C@H](CO)N1C[C@H](C)[C@@H](CN(C)CC2CCCCC2)OCCCC[C@H](C)Oc2ccc(NS(=O)(=O)c3cn(C)cn3)cc2C1=O | inactive | 
35 | c1cn(CCc2noc(C3CCCC3)n2)c(-c2cc3n(n2)CCCNC3)n1 |  | AC50: 53.7 µM
36 | COCC(=O)n1nc(-c2ccco2)nc1NCc1cccs1 | inactive | 
37 | O=C(CN1CCN(c2ccccc2O)CC1)NC(=O)NC1CCCC1 | inactive | 
38 | Cc1ccc(C)n1NC(=O)c1ccccc1O | inactive | 
39 | CCCC(=O)NCc1ccc2c(c1)cc(C)n2C | inactive | 
40 | O=C(O)CCc1ccc(-c2cccs2)n1NC(=O)c1ccco1 | inactive | 
41 | NC(=O)C1(N2CCCCC2)CCN(c2ncc(NC(=O)c3cccc(Cl)c3)cc2C(=O)O)CC1 |  | AC50: 6.54 µM
42 | CCN1CCN(C(=O)c2cc(-c3ccco3)nc3ccccc23)CC1 |  | AC50: 61.4 µM
43 | CN(C)C(CN=C1NS(=O)(=O)c2ccccc21)c1ccco1 (stereo not given) | inactive | 
44 | CCCN1CCc2nc(SCc3nc(-c4ccc(OC)cc4OC)oc3C)[nH]c(=O)c2C1 | inactive | 

Row | Compound | activity change, negative = inhibition (at 80 µM (top of the series)) | also measured
45 | O=C(CCCN1C(=O)NC2(CCCC2)C1=O)Nc1ccc(F)cc1 | inactive | 
46 | CCOc1ccc(CNc2nc(-c3nnc(-c4ccc(F)cc4)o3)nc3ccccc23)cc1 | inactive | 
47 | COc1ccc(N2Cc3cccc(C(=O)NC(C)CCc4ccco4)c3C2=O)cc1 (stereo not given) | inactive | 
48 | O=c1oc(-c2ccccc2)nc2sc3c(c12)CCC3 | inactive | 
49 | O=C(NCCc1ccccc1)c1cc2cccnc2n(Cc2ccccc2)c1=O |  | AC50: > 160 µM (inactive)
50 | Nc1cc2c(cc1O)CCCC2 | inactive | 
51 | COc1ccc(F)c(CN2C[C@H]3CC[C@@H]2CN(Cc2cscn2)C3)c1 | inactive | 
52 | Cc1nc(C)c(C(=O)Nc2ncc([N+](=O)[O-])s2)o1 | inactive | 
53 | CC(C(=O)N1CCCC1)N1CCN(c2ccccc2O)CC1 (stereo not given) | inactive | 
54 | N#Cc1c(-c2ccco2)cc(-c2cccnc2)nc1N | inactive | 
55 | O=C(Nc1ncccc1O)c1ccc(OCC2CCCO2)cc1 (stereo not given) | inactive | 
56 | COc1ccc(S(=O)(=O)c2ccccc2)cc1NS(=O)(=O)c1cccc(C(=O)O)c1 |  | AC50: > 160 µM (inactive)
57 | NC(=O)C1(N2CCCCC2)CCN(c2ncc(NC(=O)c3cccs3)cc2C(=O)O)CC1 |  | AC50: 21.3 µM
58 | CCN(CCNC(=O)C1CCN(S(=O)(=O)c2c(C)noc2C)CC1)c1ccccc1 | inactive | 
59 | COc1ccc(CNC(=O)c2nc(Nc3ccc(C)cc3)c3ccccc3n2)cc1 | inactive | 
60 | COc1ccc(S(=O)(=O)Nc2ccc3c(c2)C(=O)N([C@H](C)CO)C[C@H](C)[C@@H](CN(C)C(=O)C2CCCCC2)OCCCC[C@H](C)O3)cc1 | inactive | 
61 | COc1ccc(NC(=O)c2nc(Nc3ccccc3)c3ccccc3n2)cc1 |  | activity change, negative = inhibition (at 38 µM (top of the series)): inactive
62 | N#CCSc1nc2c(c(=O)n1Cc1ccco1)C1(CCCC1)Cc1ccccc1-2 | inactive | 
63 | O=C(COC(=O)CCC(=O)c1cccs1)NCc1ccco1 | inactive | 
64 | O=C(COC(=O)c1cc(-c2ccco2)nc2ccccc12)NCc1ccccc1 | inactive | 
65 | Cc1ccc2cc(CN(Cc3ccco3)S(C)(=O)=O)c(=O)[nH]c2c1 |  | AC50: > 160 µM (inactive)
66 | COc1ccc(Nc2nc(-c3nnc(-c4ccc(F)cc4)o3)nc3ccccc23)cc1Cl | inactive | 

Row | Compound | activity change, negative = inhibition (at 80 µM (top of the series)) | also measured
67 | O=C1CC(c2ccco2)Cc2nc(N3CCc4ccccc4C3)ncc21 (stereo not given) | inactive | 
68 | Cc1scc(C(=O)NCc2ccco2)c1-c1ccccc1 | inactive | 
69 | COc1ccc(-c2nc(SCC(=O)N3CCN(c4ccccc4OC)CC3)n[nH]2)cc1 | inactive | 
70 | O=[N+]([O-])c1ccc2nn(Cc3ccccc3)cc2c1 | inactive | 
71 | CCCOc1ccc(CCC(=O)O)cc1 | inactive | 
72 | O=C(NCc1ccco1)c1c2c(nc3ccccc13)CCC2 |  | AC50: > 160 µM (inactive)
73 | O=C(Nc1ccc2oc(-c3cccnc3)nc2c1)c1ccc2c(c1)OCCO2 | inactive | 
74 | Cc1noc(CN(C)C(=O)c2cc(-c3ccco3)nc3c(C)c(Cl)ccc23)n1 | inactive | 
75 | CCCc1oc(C(=O)O)cc1CN | inactive | 
76 | CCc1nc(OCc2ccco2)c2sc3nc4c(cc3c2n1)COC(C)(C)C4 | inactive | 
77 | CS(=O)(=O)N1CCN(c2ccc([N+](=O)[O-])c(SCc3ccco3)c2)CC1 | inactive | 
78 | O=C(Nc1ccc2c(c1)nc1n2CCN(C2CCCCC2)C1)c1ccco1 | inactive | 
79 | Cc1ccc(-c2cc(C(=O)NCc3ccco3)c3ccccc3n2)o1 |  | AC50: 75 µM
80 | C[C@H](CO)N1C[C@H](C)[C@@H](CN(C)C(=O)C2CCCCC2)OCCCC[C@H](C)Oc2ccc(NS(C)(=O)=O)cc2C1=O | inactive | 
81 | Cc1ccc(Nc2nc(C(=O)Nc3ccc(Br)cc3)nc3ccccc23)cc1 | inactive | 
82 | On1c(-c2ccco2)nc2c1CCc1nonc1-2 | inactive | 
83 | O=C1c2ccccc2S(=O)(=O)N1Cc1cccc(S(=O)(=O)N2CCOCC2)c1 | inactive | 
84 | O=S(=O)(Nc1nc2ccc(S(=O)(=O)N3CCCCC3)cc2s1)c1ccccc1 | inactive | 
85 | OCc1ccc(O)c2ncccc12 |  | AC50: 23.5 µM
